According to patent publication US20060121449A1, “Method for selection of compounds which inhibit clonal cell growth and use thereof” (priority 2002, published 2006):
“Also recorded” adds a separate entry of the source.

Tests used:
[1] = system: polyoma virus transformed BHK21/c13 cells, line S100T1; test: Collocation inhibition test: clonal growth in sparsely and densely seeded areas of a cell density gradient of S100T1 cells in soft agar (Exp 13, 17, 19-26); conditions: for Significance: Exp 17 day 14;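 as to Clonal growth, H high density area of cell gradient, High: grades rise with clonal growth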;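 as to Clonal growth, H high density area of cell gradient, Low: grades rise with clonal growth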;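 as to Clonal growth, H high density area of cell gradient, Medium: grades rise with clonal growth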;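 as to Clonal growth, L low density area of cell gradient, High: grades rise with clonal growth and minus or plus-minus means none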;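 as to Clonal growth, L low density area of cell gradient, Low: grades rise with clonal growth and minus or plus-minus means none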;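 as to all read-outs here: soft agar cultures in 24-well plates with a cell density gradient in the top layer, compounds applied from DMSO stocks, clonal growth scored in sparse versus dense areas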
Experimental: (§1) The cells should be grown in a top agar layer to avoid growth on the bottom surface. […] Both densely seeded and sparsely seeded areas were photographed.
(§2) Cells: The polyoma virus transformed offspring of BHK21/c13, S100T1, was grown on 75 cm^2 flasks on Eagles medium with 5% foetal calf serum. […] Foetal calf serum (0.7 ml) was added to each harvest. After low speed centrifugation the supernatant was discarded and the cells were dispersed in 1 ml FBS.
(§3) The concentration of ultra low gelling temperature agarose (Sigma) of the top agar layer with cells was also 0.8%. […] The addition of cells was performed at the same side of the wells in order to create similar cell density gradients. Finally the top layer agar was consolidated in the refrigerator.
(§4) After that it was incubated at 37 degrees in 5% CO2 atmosphere.
(§5) Agar cultures were prepared in Falcon 24 well tissue culture plate. Each well contained two agar layers of 0.3 ml.
(§6) Agar cultures were prepared in wells of Falcon 24 well tissue culture plate. Each contained two agar layers of 0.3 ml. […] The medium contained Eagles MEM and 10% foetal bovine serum (FBS).
(§7) The compounds were first solved in DMSO in 20 mM concentration and then diluted in medium. The top layer needed 60-90 minutes in the refrigerator for solidification before incubation in 37° C. with 5% CO2 atmosphere.
(§8) In this experiment the inhibitor was added to the bottom layer in order to get an easier way for making the cell density gradient. One side of the Falcon 24 well plate was elevated 12 degrees in the refrigerator for 60-90 minutes to solidify the bottom layer in an oblique position When then solidifying the cell containing top soft agar layer in horizontal position, the cell gradient constantly became good across the well. […] Another 90 minutes were spent in the refrigerator to consolidate the soft agar layer with cells in a horizontal position. Both layers contained 0.8% agarose, Eagles MEM and 10% FBS.
(§9) Tilting the plate 12 degrees when solidifying the bottom layer with the drug and casting the top layer with cells horizontally made a stable cell gradient.
(§10) The indicated compounds were added to soft agar cultures of the polyoma virus transformed cell line S100T1 of BHK21/c13 cells (Table 1). Agar cultures were prepared in wells of a Falcon 24 well tissue culture plate. The wells contained two agar layers of 0.3 ml. […] The bottom medium was identical, but without cells.
(§11) The compounds were first solved in DMSO in 20 mM concentration and then diluted in bottom medium. The agar layers needed 60-90 minutes in the refrigerator for consolidation before incubation at 37° C. in 5% CO2 atmosphere.

[2] = system: polyoma virus transformed BHK21/c13 cells, line S100T1;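 also: soft agar cultures in 24-well plates with a cell density gradient in the top layer, compounds applied from DMSO stocks, clonal growth scored in sparse versus dense areas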;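 as to Clonal growth, H high density area of cell gradient, High: grades rise with clonal growth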;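 as to Clonal growth, H high density area of cell gradient, Low: grades rise with clonal growth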;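 as to Clonal growth, H high density area of cell gradient, Medium: grades rise with clonal growth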;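 as to Clonal growth, L low density area of cell gradient, High: grades rise with clonal growth and minus or plus-minus means none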;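 as to Clonal growth, L low density area of cell gradient, Low: grades rise with clonal growth and minus or plus-minus means none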
Experimental: as §1, §2, §3, §4, §5, §6, §7, §8, §9, §10, §11

[3] = preliminary results, Exp 13-18, 21-26, high concentration
[4] = preliminary results, Exp 13-18, 21-26, low concentration
[5] = preliminary results, Exp 13-18, 21-26, medium concentration

COc1cc([C@@H]2c3cc4c(cc3[C@@H](O[C@@H]3O[C@@H]5CO[C@@H](C)O[C@H]5[C@H](O)[C@H]3O)[C@H]3COC(=O)[C@H]23)OCO4)cc(OC)c1O [Etoposide, reference compound]
Inhibition of cells in crowded areas ([1]; Exp 17): induce the best inhibition of cells in crowded areas | Effect on growth in high- and low-density areas ([1]; Exp 17, 144000 S100T1 cells/well): growth inhibition of both high and low-density areas; also recorded: significant inhibition of growth in crowded areas | Clonal growth, results read on the day 14 ([1]; Exp 17, a: close to densely seeded cell areas, High: Colchicine 1, Podophyllotoxin 3, Etoposide 200, 4-OH—OPB 6.7 μM in wells, DMSO 29.2 μl): (+) | Clonal growth, results read on the day 14 ([1]; Exp 17, a: close to densely seeded cell areas, Low: Colchicine 0.1, Podophyllotoxin 0.3, Etoposide 20, 4-OH—OPB 0.67 μM in wells, DMSO 1.16 μl): + | Clonal growth, results read on the day 14 ([1]; Exp 17, a: close to densely seeded cell areas, Medium: Colchicine 0.3, Podophyllotoxin 0.9, Etoposide 60, 4-OH—OPB 2 μM in wells, DMSO 6.8 μl): + | Clonal growth, results read on the day 14 ([1]; Exp 17, b: sparsely seeded areas in the same agar culture, High: Colchicine 1, Podophyllotoxin 3, Etoposide 200, 4-OH—OPB 6.7 μM in wells, DMSO 29.2 μl): (+) | Clonal growth, results read on the day 14 ([1]; Exp 17, b: sparsely seeded areas in the same agar culture, Low: Colchicine 0.1, Podophyllotoxin 0.3, Etoposide 20, 4-OH—OPB 0.67 μM in wells, DMSO 1.16 μl): (+) | Clonal growth, results read on the day 14 ([1]; Exp 17, b: sparsely seeded areas in the same agar culture, Medium: Colchicine 0.3, Podophyllotoxin 0.9, Etoposide 60, 4-OH—OPB 2 μM in wells, DMSO 6.8 μl): (+) | Clones in sparsely seeded locations of the agar ([1]; Exp 17, compared with 4-OH-OPB): allow the growth of a few small clones in sparsely seeded locations of the agar; also recorded: to allow the growth of a few small clones in sparsely | Significance ([1]; a: close to densely seeded cell areas, High: Colchicine 1, Podophyllotoxin 3, Etoposide 200, 4-OH—OPB 6.7 μM in wells, DMSO 29.2 μl): Possible | Significance ([1]; a: close to densely seeded cell areas, Low: Colchicine 0.1, Podophyllotoxin 0.3, Etoposide 20, 4-OH—OPB 0.67 μM in wells, DMSO 1.16 μl): No | Significance ([1]; a: close to densely seeded cell areas, Medium: Colchicine 0.3, Podophyllotoxin 0.9, Etoposide 60, 4-OH—OPB 2 μM in wells, DMSO 6.8 μl): No | Significance ([1]; b: sparsely seeded areas, High: Colchicine 1, Podophyllotoxin 3, Etoposide 200, 4-OH—OPB 6.7 μM in wells, DMSO 29.2 μl): Possible | Significance ([1]; b: sparsely seeded areas, Low: Colchicine 0.1, Podophyllotoxin 0.3, Etoposide 20, 4-OH—OPB 0.67 μM in wells, DMSO 1.16 μl): Possible | Significance ([1]; b: sparsely seeded areas, Medium: Colchicine 0.3, Podophyllotoxin 0.9, Etoposide 60, 4-OH—OPB 2 μM in wells, DMSO 6.8 μl): Possible | Control of metastatic cells leaving tumour ([1]; ability of cells to leave a tumour, grow and infiltrate locally or grow in sparsely seeded areas, concluded from Exp 17): probably not | Clonal growth, H high density area of cell gradient, High [1, 3]: (+) | Clonal growth, L low density area of cell gradient, High [1, 3]: (+) | Clonal growth, H high density area of cell gradient, Low [1, 4]: + | Clonal growth, L low density area of cell gradient, Low [1, 4]: (+) | Clonal growth, H high density area of cell gradient, Medium [1, 5]: + | Clonal growth, L low density area of cell gradient, Medium [1, 5]: (+) | Control of settlement of metastatic cells ([1]; single cells or very few cells spread to distant sites, concluded from Exp 17): partly | Toxicity for body or dense cell populations [2]: yes
